From US20230201323A1, “VACCINE FORMULATIONS” (EUUALY S.A., priority 2020, published 2023)
Where a SMILES comes first, the peptide text is derived from it.

Assays:
NOD mice = experiment: Insulitis by pancreas histology in immunized NOD mice; type: in vivo; details: female NOD mice, 100 μg in aluminium hydroxide four times at a week interval from six weeks old, histology at week 15
Source text: Non-obese diabetes (NOD) mice are the most used animal model for diabetes due to the spontaneous development of insulitis, hyperglycaemia and diabetes in a context wherein both inflammation and auto-immunity play determining roles. The local lesion, insulitis, starts accumulating after a few weeks, so that therapeutic interventions should be considered as suppressive rather than preventive.
Six-weeks old female NOD mice are immunized with a peptide made of a class II-restricted T cell epitope of GAD65 (319-333: ILEVKQKGFVPFLVS, SEQ ID NO:3) or with the same peptide containing a redox motif (bold figures) in its flanking residues
Immunisation is carried out using 100 μg of peptide of SEQ ID NO:4 in aluminium hydroxide, four times at a week interval. Control mice receive peptide of SEQ ID NO:3 according to the same injection schedule.
Mice are then sacrificed at week 15, the pancreas is isolated and evaluated by histology to identify insulitis.

[1] = test system: CD4+ obtained from the spleen of mice immunized with peptide of SEQ ID NO:3; experiment: Co-culture of CFSE-labelled CD4+ cells (SEQ ID NO:3) with CD4+ T cells from mice immunized with SEQ ID NO:4; type: cell-based, NOD mice
[2] = test system: AQP4-specific CD4+ T cells; experiment: Phenotype of CD4+ T cells from AQP4 KO C57BL/6 mice immunized with AQP4 peptide; type: in vivo
Experimental: The C57BL/6 (H-2b) strain is the elective animal model as its natural repertoire of CD4+ T cells contains cells activable by immunisation with AQP4 epitopes whose sequences are entirely superposable to those activating human CD4+ T cells. Besides, the homology between human and mouse AQP4 is 93%. However, due to natural tolerance to AQP4, it remains difficult to generate T cells with a pathogenic potential. Therefore, C57BL/6 mice lacking expression of AQP4 (AQP4 KO) are used.
is used at 100 μg emulsified in complete Freund's adjuvant to immunize AQP4 KO C57BL/6 mice in the footpad, followed by 3 injections of 100 μg in incomplete Freund's adjuvant at 10-days intervals. Four weeks after the last injection, the mice are sacrificed and splenocytes are prepared. After separation of CD4+ T cells from the bulk splenocytes, lymphocytes specific for peptide of SEQ ID NO:1 are isolated by incubation with magnetic beads coated with class II (H2b) molecules loaded with peptide of SEQ ID NO:1.
AQP4-specific CD4+ T cells are then phenotyped and found to belong to the Th17 subtype.
A similar experiment is carried out in AQP4 KO C57BL/6 mice immunized with the same peptide, but containing a redox motif (in bold) in its flanking residues (SEQ ID NO:2), and with alum instead of CFA/IFA

wildtype C57BL/6 mice = experiment: IV transfer of peptide-elicited CD4+ T cells into wildtype C57BL/6 mice, spinal cord examination; type: in vivo; details: 10^6 peptide-elicited CD4+ T cells per mouse IV, spinal cord ten days afterwards
Experimental: Such cells are then administered by IV injection in wildtype C57BL/6 mice (10^6 cells per mouse). Ten days afterwards, mice are sacrificed and the spinal cord isolated.
In a control experiment, 10^6 cells are administered by IV injection in wildtype C57BL/6 mice.

[3] = test system: Thy1.1 CD4+ T cells obtained by immunisation with peptide of SEQ ID NO:1; experiment: Mixed culture of Thy1.1 and Thy1.2 CD4+ T cells on antigen-presenting cells loaded with peptide of SEQ ID NO:1; type: cell-based, C57BL/6 mice; details: 1/1 mixture with Thy1.2 CD4+ T cells elicited by SEQ ID NO:2, 7 days of culture
Experimental: Next, to determine whether CD4+ T cells obtained by immunisation with peptide of SEQ ID NO:2 could suppress pathogenic CD4+ T cells obtained by immunisation with peptide of SEQ ID NO:1, mixed cultures were performed with antigen-presenting cells loaded with peptide of SEQ ID NO:1. For such in vitro experiments, the two CD4+ T cell populations were obtained from C57BL/6 mice expressing either the Thy1.1 or the Thy1.2 surface phenotypic marker, identified by specific antibodies.
Dendritic cells converted from peripheral blood monocytes were used as antigen-presenting cells. Thus, 50×10^6 cells were incubated with 10 μg of peptide of SEQ ID NO:1 for 16 h at room temperature, washed and then incubated with a 1/1 mixture of Thy1.1 CD4+ T cells obtained by immunisation with peptide of SEQ ID NO:1 and Thy1.2 CD4+ T cells obtained by immunisation with peptide of SEQ ID NO:2. The phenotype of each CD4+ T cell population was then evaluated after 7 days of culture.

C57BL/6 female mice = test system: C57BL/6 female mice
Experimental: C57BL/6 female mice are treated with an injection of 100 μl containing 200 μg of peptide encompassing amino acid residues […], namely:
and 100 μl of complete Freund's adjuvant. In addition, […] of pertussis toxin is administered intraperitoneally on days 0 and 2 to permeate the blood-brain barrier.
One month after the date of disease induction, the spinal cord is examined for inflammatory infiltrates. Tissues are fixed in formaldehyde and stained with hematoxilin-eosin for cell counting. T cells are identified using an anti-CD3 antibody. Demyelination is detected by staining with Luxol Fast Blue (LFB).
To establish that cells of the present invention exert a suppressive effect on pathogenic T cells, two group of C57BL/6 female mice was treated by 4 weekly subcutaneous injections of 100 μg of peptide
corresponding to peptide of SEQ ID NO:5 but containing a redox motif (in bold). These injections were made with a formulation containing aluminum hydroxide as adjuvant.
A second group of mice immunized with peptide of SEQ ID NO:6 was then treated as in the positive control group, namely peptide of SEQ ID:5 with complete Freund's adjuvant and pertussis toxin.

CD4+ T cells = experiment: Phenotype and cytokine production of Balb/c CD4+ T cells expanded in vitro with Staph. aureus nuclease peptides; type: cell-based, Balb/c mice; details: after 2 cycles of stimulation on peptide-loaded antigen-presenting cells
Experimental: Balb/c mice kept under open conditions (not pathogen-free) show specific antibodies and CD4+ T cells towards Staph. aureus nuclease. Splenocytes are obtained from such mice to prepare CD4+ T cells. Such cells are cultured and expanded in the presence of antigen-presenting cells loaded with either peptide of sequence
After 2 cycles of stimulation, the phenotype and cytokine production of cells are examined. […] Other markers of CD4+ T cells with an immune suppressive function include DLL4 (Rubey et al. Diabetes 2020 69(5):915-926, CTLA2 (Sugita et al. J Immunol 2009 183(8):5013-22), TGF-beta2 (Mir et al. Immunology 2015 146(4):547-56, arginase (Khoshnejad et al. Mol Ther Methods Clin Dev 2020 18:652-663 and meteorin (Baht et al. Nat Metab 2020 2(3):278-289)

[4] = test system: cells obtained by stimulation with peptide of SEQ ID NO:7; experiment: Coculture of CFSE-labelled SEQ ID NO:7 cells with SEQ ID NO:8 cells, proliferation by CFSE dilution; type: cell-based, Balb/c mice
Experimental: Cells obtained by stimulation with peptide of SEQ ID NO:7 were labelled with CFSE and cultured together with cells obtained with peptide of SEQ ID NO:8 at a 1 to 1 ratio on antigen-presenting cells loaded with peptide of SEQ ID NO:7.
After 7 days of coculture, the proliferation of cells was measured by CFSE dilution.

[5] = AQP4 KO C57BL/6 mice immunized with peptide in alum

HCYPCILEVKQKGFVPF (GAD65redox) [SEQ ID NO:4]
islets with no sign of inflammation or cellular infiltrate (NOD mice): > 70% | capacity of recovered CFSE-labeled cells to proliferate upon presentation of cognate epitope (SEQ ID NO:3) ([1]; cells recovered from co-culture with SEQ ID NO:4-elicited CD4+ T cells): lost their capacity to proliferate | reduction in numbers of CFSE-labelled CD4+ cells (SEQ ID NO:3) by co-culture ([1]; co-culture with CD4+ T cells from spleen of mice immunized with SEQ ID NO:4): circa 5%

HCPYCSIMVAFKGVWTQAFWKAV (AQP4redox; (9)..(20) core epitope) [SEQ ID NO:2, same AQP4 peptide containing a redox motif in its flanking residues]
factors produced by CD4+ T cells obtained from the spleen [2, 5]: PGE2 (prostaglandin E2) and IL-10 | markers characterizing CD4+ T cells obtained from the spleen [2, 5]: TIGIT and CTLA2 | spinal cord inflammatory lesions / infiltration (wildtype C57BL/6 mice): no inflammatory lesions or T lymphocytes | phenotype of Thy1.1 CD4+ T cells (SEQ ID NO:1-elicited) in mixed culture [3]: lost their phenotypic characteristics of Th17 cells | proliferation of Thy1.1 CD4+ T cells (SEQ ID NO:1-elicited) in mixed culture [3]: no proliferation

SIMVAFKGVWTQAFWKAV (AQP4 epitope; (4)..(15) core epitope) [SEQ ID NO:1, peptide encompassing amino acid residues 21-38 of AQP4, no redox motif, reference compound]
subtype of AQP4-specific CD4+ T cells ([2]; AQP4 KO C57BL/6 mice, 100 μg in CFA then 3 x 100 μg in IFA, splenocytes four weeks after last injection): Th17 subtype | spinal cord inflammatory lesions / infiltration (wildtype C57BL/6 mice): Infiltration with inflammatory cells, including AQP4-specific CD4+ T cells is observed

ILEVKQKGFVPFLVS (GAD65 epitope) [SEQ ID NO:3, reference compound]
islets with no sign of inflammation or cellular infiltrate (NOD mice): the reverse

CC[C@H](C)[C@H](NC(=O)CNC(=O)[C@@H](NC(=O)[C@H](CS)NC(=O)[C@@H]1CCCN1C(=O)[C@H](Cc1ccc(O)cc1)NC(=O)[C@H](CS)NC(=O)[C@@H](N)Cc1c[nH]cn1)[C@@H](C)O)C(=O)N[C@@H](CC(C)C)C(=O)N[C@@H](CC(=O)O)C(=O)N[C@@H](CO)C(=O)N[C@H](C(=O)NCC(=O)N[C@@H](CCCNC(=N)N)C(=O)N[C@@H](Cc1ccccc1)C(=O)N[C@@H](Cc1ccccc1)C(=O)N[C@@H](CO)C(=O)NCC(=O)O)[C@@H](C)CC [SEQ ID NO:6, HCYPCTGILDSIGRFFSG] (H-HCYPCTGILDSIGRFFSG-OH)
signs of disease after immunisation alone (C57BL/6 female mice; 4 weekly subcutaneous injections of 100 μg with aluminum hydroxide, no disease induction): no signs of disease

HCYPCHNTHEQHLRKS (Sa Nucleaseredox) [SEQ ID NO:8, Staph. aureus nuclease peptide containing a redox motif]
cytokine production of cells obtained by stimulation (CD4+ T cells): IL-4, IL-10, IL-13 and amphiregulin (AREG) | surface expression on cells obtained by stimulation (CD4+ T cells): TIGIT and BLIMP-1 | proliferation of SEQ ID NO:7-obtained cells in presence of SEQ ID NO:8-obtained cells (CFSE dilution) ([4]; 1 to 1 ratio, antigen-presenting cells loaded with SEQ ID NO:7, 7 days of coculture): do not proliferate | phenotype of SEQ ID NO:8-obtained cells after coculture ([4]; 7 days of coculture on antigen-presenting cells loaded with SEQ ID NO:7): unchanged phenotype

NTHEQHLRKS (Sa Nuclease) [SEQ ID NO:7, Staph. aureus nuclease peptide, no redox motif, reference compound]
cytokine production of cells obtained by stimulation (CD4+ T cells): interferon gamma (IFN-γ) | phenotype of cells obtained by stimulation (CD4+ T cells): characteristics of Th1 cells

TGILDSIGRFFSG (MBP) [SEQ ID NO:5]
demyelination by Luxol Fast Blue (LFB) staining (C57BL/6 female mice; SEQ ID NO:5 = disease induction, SEQ ID NO:6 = 4 weekly sc 100 μg in aluminum hydroxide before induction): signs of demyelination | T lymphocyte / inflammatory infiltrates in the spinal cord (C57BL/6 female mice; hematoxilin-eosin and anti-CD3, SEQ ID NO:5 = disease induction, SEQ ID NO:6 = 4 weekly sc 100 μg in aluminum hydroxide before induction): significant infiltrates including T lymphocytes
